Reference: patent US10632084B2, “Aquaporin 4 function promotor and pharmaceutical composition for neurological disorders” (NIIGATA UNIVERSITY, priority 2016, dated 2020)

Legend:
AQP 4 [1] = target: T1, AQP 4 (Mus musculus, UniProt P55088); assay: AQP 4 function promotion verification test using Alzheimer's disease model mice (H2 17O dynamics in brain by MRI); format: in vivo; settings: 5×FAD Alzheimer's disease model mice, 50 mg/kg orally for 3 months, MRI (FIG. 3)
T1 construct: from tissue; host or cells: brain of living B6SJL mice
T1 sequence (P55088 whole entry): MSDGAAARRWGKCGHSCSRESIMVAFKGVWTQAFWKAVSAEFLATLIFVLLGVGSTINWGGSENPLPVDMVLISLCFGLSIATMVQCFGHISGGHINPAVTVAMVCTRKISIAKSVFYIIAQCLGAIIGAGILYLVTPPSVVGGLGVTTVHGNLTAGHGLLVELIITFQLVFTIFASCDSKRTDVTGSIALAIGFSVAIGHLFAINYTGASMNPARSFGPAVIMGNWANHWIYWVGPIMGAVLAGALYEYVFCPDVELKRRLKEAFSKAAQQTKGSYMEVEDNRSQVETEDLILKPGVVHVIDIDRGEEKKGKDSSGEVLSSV
Protocol: (§1) 5×FAD Alzheimer's disease model mice were bred until 4 months old. Next, the compound 1A (50 mg/kg) or the compound 2A (200 mg/kg) prepared in Production Example 1 were orally administered to the mice for 3 months. Further, a non-administration group was also prepared as the control.
With respect to the group of mice to which the compound 1A was administered and the non-administration group, images showing the dynamics of H2^17O in the brain of each mouse (cortex and CSF) at 8 second intervals were recorded until 70 seconds after the administration using MRI according to the same method as in Test Example 1. In FIG. 3, “Vehicle” indicates a non-administration group and “Compound 1A” indicates a compound 1A administration group. Further, relative values (CSF/Cortex) with respect to the cortex are also shown.

senile plaques (Aβ) = assay: Immunostaining of brain slices and quantification of senile plaques in Alzheimer's disease model mice; format: in vivo, mouse; settings: 5×FAD mice; for increase in senile plaques formed of Aβ 42: oral administration for 3 months (compound 1A 50 mg/kg, compound 2A 200 mg/kg), cerebral cortex (FIGS. 4A, 4B)
Protocol: as §1
Subsequently, the brain was extracted from each mouse, paraffin-embedded slices (respectively with a thickness of 4 μm) were prepared using brain tissues, and immunohistochemical staining was performed according to the following method.
First, the slices were subjected to a formic acid treatment, and overnight incubation was performed at 4° C. using Mouse monoclonal Anti-Human Amyloid J3 (Total Aj3) (10027, IBL, Japan), [2] Rabbit polyclonal Anti-Human Amyloid J31-40 (AJ340) (18580, IBL, Japan), or [3] Rabbit polyclonal Anti-Human Amyloid J31-42 (AJ342) (18582, IBL, Japan) as primary antibodies. Further, the dilution ratios of antibodies were respectively [1]×50, [2]×200, and [3]×200. After the secondary antibodies were applied, the antibodies were visualized according to a polymer method using Histofine DAB substrate kit (NICHIREI CORPORATION, JAPAN).
Next, the tissue images of the stained samples were imaged using a bright field optical microscope (Olympus Corporation, BX53, DP73), and the images were stored according to the TIFF format (2400×1800 pixels, 3.5×2.6 mm, 2.13 μm^2/pixel). Each image was analyzed in the following manner using a particle analysis function of the image analysis processing software (Aquacosmos, Hamamatsu Photonics K.K., Japan). ROI was set as the cerebral cortex, particles were extracted according to a binarization method, and the area (the number of pixels) of each extracted particle was automatically calculated and output. In output particle data, particles with an area of 10 pixels or less were removed as noise and quantified.

[2] = target: T2, human AQP 4 (hAQP 4)-M23 isoform (Homo sapiens, UniProt P55087); assay: In vitro assay of oocyte volume under hypotonic condition, Xenopus laevis oocytes expressing AQP 4; format: cell-based; settings: 20 μM compound, oocytes injected with hAQP 4-M23 mRNA, hypotonic reagent, up to 250 seconds, vs Blank (FIG. 1)
T2 construct: expressed in transfected cells; host or cells: Xenopus laevis oocytes, microinjected with hAQP4-M23 mRNA (pSP35T vector)
T2 sequence (P55087 23-323): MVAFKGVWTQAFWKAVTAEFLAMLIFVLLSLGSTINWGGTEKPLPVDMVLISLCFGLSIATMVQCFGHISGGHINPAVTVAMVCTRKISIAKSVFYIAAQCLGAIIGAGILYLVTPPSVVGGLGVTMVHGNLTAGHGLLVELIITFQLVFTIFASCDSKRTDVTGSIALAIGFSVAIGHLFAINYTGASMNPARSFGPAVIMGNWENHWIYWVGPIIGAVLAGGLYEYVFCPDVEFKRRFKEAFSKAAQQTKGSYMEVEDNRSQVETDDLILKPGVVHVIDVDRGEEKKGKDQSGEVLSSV
Protocol: A Modified Barth's Medium (MBS) was provided to contain NaCl (88 mM), KCl (1 mM), HEPES (10 mM), MgSO4 (0.82 mM), NaHCO3 (2.4 mM), CaCl2 (0.91 mM), Ca(NO3)2 (0.33 mM), and gentamicin (100 mg/L), prepared to have a pH of 7.5, and used within one week after the preparation.
Isolation, preparation, and transfection of the oocytes of a Xenopus laevis were performed using a method described in the reference (Sakimura, et al., FEBS Lett., 272, 73 to 80, 1990.). Specifically, the oocytes were extracted from a female adult of a Xenopus laevis (weight of 150 g) and transferred to an MBS. Next, the oocytes were partially transferred to an isolation buffer solution, and the theca folliculi was manually removed so that the oocytes were exposed. […]
Next, the transferred oocytes were imaged using an SZX 16 microscope (manufactured by Olympus Corporation) connected to a DP 26 digital camera (manufactured by Olympus Corporation). […] A Hypotonic reagent (1000 μL) was added, and an assay initial image (t=3 seconds) and images at 15 second intervals of were recorded up to 250 seconds after the administration. […]
Subsequently, the images were transferred to a personal computer, and the region of each oocyte was evaluated using NIH Image-J. The value of the cross-sectional area of each oocyte in a plurality of equally determined measurement times was converted into a volume assumed to be spherical. […]

AQP 4 [3] = target: T1, AQP 4; assay: AQP 4 function promotion verification test using mice (H2 17O dynamics in brain by MRI); format: in vivo; settings: normal male B6SJL-Tg mice, 8 weeks old, intraperitoneal administration, MRI until 70 seconds (FIG. 2B)
Protocol: Normal male B6SJL-Tg mice obtained from Jackson Laboratory were bred until 8 weeks old. Next, indomethacin as a comparative example, the compound 2A prepared in Production Example 1, and physiological saline as the control were intraperitoneally administered to respectively five mice.
Thereafter, 0.2 mL of typical physiological saline containing 20% H2^17O was administered to the right femoral vein of each mouse through the PE10 tube inserted thereinto using an automatic syringe at 0.04 mL/sec. Next, images showing the dynamics of H2^17O in the brain of each mouse ((cortex) and the cerebrospinal fluid (CSF)) at 8 second intervals were recorded until 70 seconds after the administration using magnetic resonance imaging (MRI). The results are shown in FIG. 2A (administration of indomethacin) and FIG. 2B (administration of compound 2A). FIGS. 2A and 2B show relative values (CSF/Cortex) of CSF with respect to the cortex. In FIGS. 2A and 2B, “Vehicle” indicates a non-administration control group, “Indomethacin” indicates an indomethacin administration group, and “Compound 2A” indicates a compound 2A administration group.

For `N=C(N)NCCS(=O)(=O)O` [compound 1A, 2-guanidino-1-ethanesulfonic acid], the “AQP 4 function (H2 17O dynamics, CSF/Cortex)” value (AQP 4 [1]) was “markedly promoted”, the “increase in senile plaques (total Aβ, Aβ 40, Aβ 42 staining)” value (senile plaques (Aβ); 50 mg/kg orally for 3 months, cerebral cortex (FIGS. 5A-7B)) was “can be suppressed” and the “increase in senile plaques formed of Aβ 42” value (senile plaques (Aβ)) was “can be suppressed”.

`O=S(=O)(Nc1ncccc1OCc1ccccc1)c1ccccc1` [compound 2A, 2-(phenylsulfonamido)-3-benzyloxypyridine] was tested, and the “volume of the oocyte” value [2] was “significantly increased”, the “numerical values of CSF/Cortex (H2 17O dynamics; water discharge, flow of cerebrospinal fluid)” value (AQP 4 [3]) was “decreased” and the “increase in senile plaques formed of Aβ 42” value (senile plaques (Aβ)) was “can be suppressed”.
